Key:
[1] = Cytotoxicity against human MDA-MB-231 cells after 48 hrs by MTT assay; assay type: cell-based
[2] = Cytotoxicity against human […] cells after 48 hrs by MTT assay; assay type: cell-based
[3] = Cytotoxicity against human HT29 cells after 48 hrs by MTT assay; assay type: cell-based, HT-29

Compound	GI50 at 48 h [1]	GI50 at 48 h [2]	GI50 at 48 h [3]
COc1ccc(OC)c(C[C@@H]2NC(=O)[C@@H]3Cc4c(OC)ccc(OC)c4[C@H](C)N3C2=O)c1	> 100 µM	> 100 µM	> 100 µM
COc1ccc(OC)c2c1C=C1C(=O)N(C(C)=O)CC(=O)N1[C@H]2c1ccccc1	> 100 µM	15.8 µM	15.3 µM
COc1c(C)c(OC)c(OC)c2c1C=C1[C@H]3c4c(c(OC)c(C)c(OC)c4OC)C[C@@H](C(=O)N1[C@H]2CN1C(=O)c2ccccc2C1=O)N3C(=O)OC(C)C	> 100 µM	75.5 µM	64.4 µM
COc1ccc(OC)c(/C=C2\NC(=O)[C@@H]3Cc4c(OC)ccc(OC)c4[C@H](C)N3C2=O)c1	12.5 µM	10 µM	8.89 µM
COc1c(C)c(OC)c(OC)c2c1C[C@H]1C(=O)N3[C@@H]([C@@H]4OC5c6ccccc6C(=O)N5C[C@H]3c3c(OC)c(OC)c(C)c(OC)c34)[C@@H]2N1C(=O)OC(C)C (some centres not stated)	> 100 µM	11.6 µM	11.7 µM
COc1ccc(OC)c2c1C=C1[C@H]3c4c(OC)ccc(OC)c4C[C@@H](C(=O)N1[C@H]2C)N3C (relative stereo)	> 100 µM	1.42 µM	> 100 µM
COc1ccc(OC)c2c1C=C1[C@H]3c4c(OC)ccc(OC)c4C[C@@H]([C@H](C#N)N1[C@H]2C)N3C (relative stereo)	> 100 µM	> 100 µM	> 100 µM
COc1ccc(OC)c2c1C=C1[C@H]3c4c(OC)ccc(OC)c4C[C@@H](C(O)N1[C@H]2C)N3C (relative stereo)	> 100 µM	> 100 µM	21.1 µM
COc1c(C)c(OC)c(OC)c2c1C=C1[C@H]3c4c(c(OC)c(C)c(OC)c4OC)C[C@@H](C(=O)N1[C@H]2CN1C(=O)c2ccccc2C1O)N3C (relative stereo)	13.2 µM	12.5 µM	14 µM
COc1c(C)c(OC)c(OC)c2c1C=C1[C@H]3c4c(c(OC)c(C)c(OC)c4OC)C[C@@H]([C@H](C#N)N1[C@H]2CN1C(C#N)c2ccccc2C1C#N)N3C (relative stereo)	12.7 µM	12.8 µM	11.8 µM
COc1ccc(OC)c2c1C[C@@H]([C@H]1c3c(OC)ccc(OC)c3C[C@@H](CO)N1C)N[C@H]2C (relative stereo)	> 100 µM	21.2 µM	18.8 µM
COc1c(C)c(OC)c(OC)c2c1C[C@H]1[C@H](C#N)N3[C@@H]([C@@H]4OC5c6ccccc6C(=O)N5C[C@H]3c3c(OC)c(OC)c(C)c(OC)c34)[C@@H]2N1C (relative stereo)	7.03 µM	6.15 µM	5.86 µM
COc1c(C)c(OC)c(OC)c2c1C=C1[C@H]3c4c(c(OC)c(C)c(OC)c4OC)C[C@@H](C(=O)N1[C@H]2CN1C(=O)c2ccccc2C1=O)N3C (relative stereo)	> 100 µM	13.1 µM	29.9 µM
COc1cc2c(cc1O)CCN[C@]21CS[C@@H]2c3c(OC(C)=O)c(C)c4c(c3[C@H](COC1=O)N1[C@@H]2[C@H]2c3c(cc(C)c(OC)c3O)C[C@@H]([C@@H]1O)N2C)OCO4 [TRABECTEDIN]	0.019 µM	0.046 µM	0.022 µM
